Residue numbers refer to the chain shown, from its start.
Experiments:
[1] = target: T1, AT1 C76A/F117C/C289A mutant receptor (Rattus norvegicus, UniProt P25095, C289A/C76A/F117C); assay: substituted cysteine accessibility mapping (SCAM), C76A/F117C/C289A; format: binding; parameters: key: Less and More indicate that the AT1 receptor is less or more accessible to the ligand pocket, respectively; Less and More indicate that the AT1 receptor is less or more accessible to the ligand pocket, respectively; No change; details: 1 µM ARB, […] MTSEA+, COS1 membranes
T1 construct: expressed in transfected cells; host or cells: COS1 cells (membranes)
T1 sequence (P25095 1-359 C76A/F117C/C289A): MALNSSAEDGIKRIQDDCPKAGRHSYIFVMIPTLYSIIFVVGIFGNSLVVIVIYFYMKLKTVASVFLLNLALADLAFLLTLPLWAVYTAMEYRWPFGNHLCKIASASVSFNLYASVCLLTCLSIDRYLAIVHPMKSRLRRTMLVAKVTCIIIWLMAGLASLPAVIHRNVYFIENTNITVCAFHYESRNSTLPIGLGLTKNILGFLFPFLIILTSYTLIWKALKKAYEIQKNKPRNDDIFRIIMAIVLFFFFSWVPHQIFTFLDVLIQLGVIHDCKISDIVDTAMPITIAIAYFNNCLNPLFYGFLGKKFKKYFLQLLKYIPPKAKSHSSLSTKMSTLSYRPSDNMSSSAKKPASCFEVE
From the text: (§1) As we reported previously, the percentage (%) inhibition of ^125I-[Sar^1, Ile^8] AngII binding by methanethiosulphonate ethyl-ammonium (MTSEA^+) reagent was approximately 30% on AT1 receptor, since Cys^76 in TM2 was accessible to water within the ligand pocket. In addition, mechanical stretching increased the accessibility of Cys^289 by inducing a change in the conformation of TM7 [22]. To differentiate between single and multiple movements of one or more native cysteines, we created TM3 residues that were substituted with cysteine one at a time from […] to Phe^117 using the C76A/C289A mutant genetic background and evaluated each triple mutant for MTSEA sensitivity.
(§2) Figure 3 Changes in cysteine accessibility in COS1 cells expressing C76A/C289A mutant receptors in which the transmenbrane 3 residues from Ala^106 to Phe^117, except for position 113, were successively replaced by cysteine. 1 µM of ARBs, n=4–9, *p<0.05 vs. no treatment. #p<0.05 vs. C76A/C289A.
(§3) The SCAM method has been used to probe relative changes in the conformation of constitutively active AT1 receptor [20]–[22] and other GPCRs, [30] by validating the presence of Cys residues within the ligand pocket. We used a highly reactive, sulfhydryl-specific reaction with methanethiosulfonyl ethyl-ammonium (MTSEA^+), which reacts a billion times faster with water-exposed and ionized Cys than with lipid-exposed and un-ionized Cys. In this reaction, a positively charged sulfonylmethylammonium group is added to a water-exposed Cys. Aliquots of cell membranes are incubated with or without ARBs for 20 min in phosphate buffer at room temperature. The membranes are then diluted with same buffer and centrifuged. After washout the cell membranes, the membranes are incubated with 2.5 mM MTSEA^+ at room temperature for 2 min in HEPES buffer (pH7.4). The Membranes are then diluted with same buffer to stop the reaction and centrifuged. One hundred µl aliquots were used to assay for ^125I-[Sar^1,Ile^8]Ang II binding. […]

[2] = target: T2, AT1 C76A/S109C/C289A mutant receptor (Rattus norvegicus, UniProt P25095, C289A/C76A/S109C); assay: substituted cysteine accessibility mapping (SCAM), C76A/S109C/C289A; format: binding; parameters: key: Less and More indicate that the AT1 receptor is less or more accessible to the ligand pocket, respectively; Less and More indicate that the AT1 receptor is less or more accessible to the ligand pocket, respectively; No change; details: 1 µM ARB, […] MTSEA+, COS1 membranes
T2 construct: expressed in transfected cells; host or cells: COS1
T2 sequence (P25095 1-359 C76A/S109C/C289A): T1 sequence (P25095 1-359 C76A/F117C/C289A) with S109C, C117F
From the text: as §1, §2, §3

[3] = target: T3, wild-type (WT) AT1 receptor (Rattus norvegicus, UniProt P25095); parameters: expressed in transfected cells; host or cells: COS1 cells; details: previously reported; cited from earlier work
T3 sequence (P25095 1-359): T1 sequence (P25095 1-359 C76A/F117C/C289A) with A76C, C117F, A289C

[4] = target: T4, AT1 C76A/V116C/C289A mutant receptor (Rattus norvegicus, UniProt P25095, C289A/C76A/V116C); assay: substituted cysteine accessibility mapping (SCAM), C76A/V116C/C289A; format: binding; parameters: key: Less and More indicate that the AT1 receptor is less or more accessible to the ligand pocket, respectively; Less and More indicate that the AT1 receptor is less or more accessible to the ligand pocket, respectively; No change; details: 1 µM ARB, […] MTSEA+, COS1 membranes
T4 construct: expressed in transfected cells; host or cells: COS1 cells (membranes)
T4 sequence (P25095 1-359 C76A/V116C/C289A): T1 sequence (P25095 1-359 C76A/F117C/C289A) with V116C, C117F
From the text: as §1, §2
The SCAM method has been used to probe relative changes in the conformation of constitutively active AT1 receptor [20]–[22] and other GPCRs, [30] by validating the presence of Cys residues within the ligand pocket. […]

Cysteine accessibility at Phe117 compared to ligand (-) [1] | Cysteine accessibility at Phe117 compared to ligand (-) ([1]; listed as olmesartan) | Cysteine accessibility at Ser109 compared to ligand (-) [2] | Cysteine accessibility at Ser109 compared to ligand (-) ([2]; listed as olmesartan) | Cysteine accessibility at Val116 compared to ligand (-) [4] | Structure (SMILES) | Pharmacological behaviour toward IP production [3]
More | greater accessibility | Less | less accessibility | No change | CCCc1nc(C(C)(C)O)c(C(=O)O)n1Cc1ccc(-c2ccccc2-c2nnn[nH]2)cc1 [Olmesartan, olmesartan, reference compound] | inverse agonism
No change |  | No change |  | No change | CCCc1nc(C(C)(C)O)c(C(N)=O)n1Cc1ccc(-c2ccccc2-c2nnn[nH]2)cc1 [R239470] | neutral antagonist

Source: PMC3375280 (PLoS ONE, 2012)
